Laboratory results: patent publication US11591365B2, “BCL9 peptides and variants thereof” (WntRx Pharmaceuticals Inc., priority 2017, dated 2023)
*1 amine or outer side, *2 acyl side, *3 side chain or, on linkers, in order; H or OH if unused. Where a SMILES comes first, the peptide text is derived from it. Bridges are numbered along the chain shown (N, C = ends). [ ]: non-standard residue; d: D form. Azetidine3carboxylic = O=C(C1CN([*:1])C1)[*:2]; 2Nal = N[C@@H](Cc1ccc2ccccc2c1)C(=O)O; d2Nal = N[C@H](Cc1ccc2ccccc2c1)C(=O)O; NMeR = CN[C@@H](CCCNC(=N)N)C(=O)O; NMeQ = CN[C@@H](CCC(N)=O)C(=O)O; Cha = N[C@@H](CC1CCCCC1)C(=O)O; Cba = N[C@@H](CC1CCC1)C(=O)O; S5 = C=CCCC[C@](C)(N)C(=O)O

Test system: Colo320DM
Assay: Colo320DM cell viability
Assay type: cell-based, human
From the text: In some embodiments, a polypeptide described herein inhibits binding of BLC9 to β-catenin when assessed in a cell-viability assay. In some embodiments, the cell-viability assay is a CellTiterGlo luminescent assay, wherein the viability of cells is quantitatively measured. Various cell lines, transformed cell lines or primary cells derived from a healthy subject or subject suffering from a disease can be used in this assay.

## CC[C@H](C)[C@@H]1NC(=O)[C@@](C)(NC(=O)[C@H](CCCNC(=N)N)NC(=O)[C@H](CC(C)C)NC(=O)[C@@H](NC(=O)[C@H](CCC(N)=O)NC(=O)[C@H](CC(C)C)NC(=O)[C@H](CO)NC(=O)[C@H](CCCNC(=N)N)NC(=O)[C@H](CCC(N)=O)NC(=O)[C@H](CCCNC(=N)N)NC(=O)[C@H](Cc2c[nH]cn2)NC(C)=O)[C@@H](C)O)CCCC=CCCC[C@@](C)(C(=O)N[C@@H](CC2CCCCC2)C(=O)N[C@H](Cc2ccc3ccccc3c2)C(N)=O)NC(=O)[C@H](CCCNC(=N)N)NC(=O)[C@H](CCC(N)=O)NC1=O [SEQ ID NO: 188, HRQRSLQTLRXIQRX(Cha)(2DNal)] (Ac-HRQRSLQTLR[S5]IQR[S5][Cha][d2Nal]-NH2; staple 11-15)
  IC50: 3.28 µM

## CC[C@H](C)[C@@H]1NC(=O)[C@@](C)(NC(=O)[C@H](CCCNC(=N)N)N(C)C(=O)[C@H](CC(C)C)NC(=O)[C@@H](NC(=O)[C@H](CCC(N)=O)NC(=O)[C@H](CC(C)C)NC(=O)[C@H](CO)NC(=O)[C@H](CCCNC(=N)N)NC(=O)[C@H](CCC(N)=O)NC(=O)[C@H](CCCNC(=N)N)NC(=O)[C@H](Cc2c[nH]cn2)NC(C)=O)[C@@H](C)O)CCCC=CCCC[C@@](C)(C(=O)N[C@@H](CC2CCCCC2)C(=O)N[C@@H](Cc2ccc3ccccc3c2)C(N)=O)NC(=O)[C@H](CCCNC(=N)N)NC(=O)[C@H](CCC(N)=O)NC1=O [SEQ ID NO: 189, HRQRSLQTL(N-MeArg)XIQRX(Cha)(2-Nal)] (Ac-HRQRSLQTL[NMeR][S5]IQR[S5][Cha][2Nal]-NH2; staple 11-15)
  IC50: 3.25 µM

## CC[C@H](C)[C@@H]1NC(=O)[C@@](C)(NC(=O)[C@H](CCCNC(=N)N)NC(=O)[C@H](CC(C)C)NC(=O)[C@@H](NC(=O)[C@H](CCC(N)=O)NC(=O)[C@H](CC(C)C)NC(=O)[C@H](CO)NC(=O)[C@H](CCCNC(=N)N)NC(=O)[C@H](CCC(=O)O)NC(=O)[C@H](CCCNC(=N)N)NC(C)=O)[C@@H](C)O)CCCC=CCCC[C@@](C)(C(=O)N[C@@H](CC2CCC2)C(=O)N[C@@H](Cc2ccc3ccccc3c2)C(N)=O)NC(=O)[C@H](CCCNC(=N)N)NC(=O)[C@H](CCC(N)=O)NC1=O [SEQ ID NO: 13, RERSLQTLRXIQRX(CBA)(2-Nal)] (Ac-RERSLQTLR[S5]IQR[S5][Cba][2Nal]-NH2; staple 10-14)
  IC50: 1.61 µM

## CC[C@H](C)[C@@H]1NC(=O)[C@@](C)(NC(=O)[C@H](CCCNC(=N)N)NC(=O)[C@H](CC(C)C)NC(=O)[C@@H](NC(=O)[C@H](CCC(N)=O)NC(=O)[C@H](CC(C)C)NC(=O)[C@H](CO)NC(=O)[C@H](CCCNC(=N)N)NC(=O)[C@H](CCC(N)=O)NC(=O)[C@H](CCCNC(=N)N)NC(=O)[C@H](Cc2c[nH]cn2)NC(C)=O)[C@@H](C)O)CCCC=CCCC[C@@](C)(C(=O)N2CC(C(=O)N[C@@H](Cc3ccc4ccccc4c3)C(N)=O)C2)NC(=O)[C@H](CCCNC(=N)N)NC(=O)[C@H](CCC(N)=O)NC1=O [SEQ ID NO: 178, HRQRSLQTLRXIQRX(Aze)(2-Nal)] (Ac-HRQRSLQTLR[S5]IQR[S5][Azetidine3carboxylic][2Nal]-NH2; staple 11-15)
  IC50: > 5 µM

## CC[C@H](C)[C@@H]1NC(=O)[C@@](C)(NC(=O)[C@H](CCCNC(=N)N)NC(=O)[C@H](CC(C)C)NC(=O)[C@@H](NC(=O)[C@H](CCC(N)=O)N(C)C(=O)[C@H](CC2CCCCC2)NC(=O)[C@H](CO)NC(=O)[C@H](CCCNC(=N)N)NC(=O)[C@H](CCC(N)=O)NC(=O)[C@H](CCCNC(=N)N)NC(=O)[C@H](Cc2c[nH]cn2)NC(C)=O)[C@@H](C)O)CCCC=CCCC[C@@](C)(C(=O)N[C@@H](CC2CCCCC2)C(=O)N[C@@H](Cc2ccc3ccccc3c2)C(N)=O)NC(=O)[C@H](CCCNC(=N)N)NC(=O)[C@H](CCC(N)=O)NC1=O [SEQ ID NO: 185, HRQRS(Cha)(N-MeGln)TLRXIQRX(Cha)(2-Nal)] (Ac-HRQRS[Cha][NMeQ]TLR[S5]IQR[S5][Cha][2Nal]-NH2; staple 11-15)
  IC50: 1.9 µM
